Experimental data as given in US20140228407A1, “TETRA-PYRIDINE COMPOUNDS AND COMPOSITION FOR PROTECTING CELLS, TISSUES AND ORGANS AGAINST ISCHEMIA-REPERFUSION INJURY” (YISSUM RESEARCH DEVELOPMENT COMPANY OF THE HEBREW …, priority 2011, published 2014).
Entries after “also recorded” stand apart in the source; their conditions may differ.

How the values were obtained:
[1] = test system: model of ischemia/reperfusion in the CD rat; experiment: Rat model of ischemia/reperfusion, cardiac Troponin I concentration (Phase B); type: in vivo; conditions: 0.2 and 2.0 mg/kg; prior to termination; not statistically different
Method: (§1) This study was conducted to evaluate the effects of the Compound #6 on cardiac function, infarct size, and Troponin I levels in a model of ischemia/reperfusion in the CD® (CR1CD® (SD)) rat. Phase A was conducted for toxicity evaluation purposes. In Phase B (the efficacy phase), two treatment groups of eight male rats were administered Compound #6 at dose levels of 0.2 and 2 mg/kg via intravenous infusion following myocardial infarction. The 2 mg/kg dose of Compound #6 was administered intravenously via a slow infusion starting 3 to 14 minutes prior to reperfusion and continuing for 20 minutes to 20 minutes and 32 seconds, which was approximately 6 to 17 minutes after reperfusion (depending on the infusion start time). The 0.2 mg/kg dose of Compound #6 was administered intravenously via a slow infusion starting 10 minutes prior to reperfusion and continuing for 30 minutes to 30 minutes and 30 seconds, which was approximately 20 minutes after reperfusion.
The animals in Phase B were monitored for selected cardiovascular endpoints from at least 15 minutes prior to acute myocardial infarction until at approximately 1 hour post reperfusion. […]
In Phase B, cardiac troponin I evaluations were conducted at 3 to 54 minutes prior to coronary artery occlusion and prior to termination on all animals. […] The samples were stored frozen at −50 to −90° C. until analyzed.

[2] = test system: neonate rat cardiomyocyte cells; experiment: Hypoxia in neonatal rat cardiomyocyte cultures, propidium iodide (PI) staining; type: cell-based; conditions: after 3.5 hours of reoxygenation
Method: Rat hearts (1-2 days old) were sterilely removed and bathed three times in Ca^2+- and Mg^2+-free PBS to remove excess blood cells. The hearts were minced to small fragments and then agitated in a proteolytic enzyme-RDB solution prepared from a fig tree extract as described previously (Brik et al., 1990; Shneyvays et al., 2001). The RDB was diluted 1:200 in PBS at 25° C. for a few cycles of 10 min each. The supernatant suspension containing dissociated cells, to which medium containing 10% horse serum was added, was centrifuged at 500 g for 5 min. After centrifugation, the supernatant phase was discarded, and cells were resuspended in Dulbecco's modified Eagle medium supplemented with 10% heat-inactivated horse serum and 0.5% chick embryo extract. […]
Cultured cardiomyocytes were incubated with propidium iodide (5 μg/ml) (Molecular Probes, Eugene, Oreg.) in PBS for 30 min at 37° C., and propidium iodide (PI) staining was performed by incubating the cells with PI (5 μg/ml) (Molecular Probes, Eugene, Oreg.) in PBS for 30 min at 37° C. in order to differentiate between dead and survived cells following hypoxia (PI-fluorescent stain only nucleus of damaged cardiomyocytes). Thereafter, cells were bathed with PBS twice, and the cell fluorescence was measured through excitation at 485 nm and emission at 635 nm. […]

[3] = test system: model of ischemia/reperfusion in the CD rat; experiment: Mortality and adverse changes in Phase B of rat ischemia/reperfusion study; type: in vivo
Method: as §1
The animals were placed on mechanical ventilation and not intubated. Once anesthetized, the animal was placed in a right lateral recumbency, an arterial catheter or polyethylene tube was placed in the carotid artery for monitoring blood pressure and a thoracotomy was performed. The left coronary artery (LCA) was identified. […] In Phase A, the animals were recovered from anesthesia and evaluated for 4 days. […]

Cc1ccc(CN(CCN(Cc2ccc(C)cn2)Cc2ccc(C)cn2)Cc2ccc(C)cn2)nc1 [Compound #6]
Troponin I (TnI) levels versus saline and vehicle control animals [1]: substantially lower TnI levels than both saline and vehicle control animals; also recorded: substantially lower, but not significantly lower
protection by PI staining, 100 nM versus other concentrations of the same compound ([2]; 100 nM): improve protection vs. other #6 concentrations
protection from hypoxic injury by PI nuclei staining compared with 1 μM TPEN, FIG. 1B ([2]; all concentrations 1 μM, 300 nM, 100 nM and 30 nM): better protection than 1 μM of TPEN
differences in mortality rates between saline animals and treated animals (Phase B) ([3]; 0.2 and 2 mg/kg vs saline): suggest a cardioprotective effect
animals that died between 3 and 4 hours post reperfusion (Phase B) ([3]; Group 5, 0.2 mg/kg): two
